# According to patent EP0113508A1, “Hydrophobic platinum compounds and their preparation” (Inco Research & Development Center, Inc., priority 1982, dated 1984):
# What was measured:
# L1210 leukemic cells = test: Chemotherapy of mice injected intravenously with L1210 leukemic cells; increase in life span (ILS) versus controls; format: in vivo; conditions: preliminary
# From the text: To deliver the water insoluble cis Pt (II) analogues for chemotheraphy, they were encapsulated in sonicated phosphatidylcholine (PC) vesicles. To prepare these PC vesicles, both the cis Pt (II) analogue and PC had to be lyophilized from cyclohexane or benzene to give a dry powder for hydration by an aqueous medium. Simply drying down an organic solution of both the cis Pt (II) analogue and the PC gave unsatisfactory results upon hydration. The lyophilized samples were hydrated with physiological saline and then sonicated at 4°C using a W-375 Branson sonicator, under a nitrogen atmosphere. The sonicated samples were spun at 12,000 x G for 5 minutes to remove any titanium fragments from the sonicator probe and any undispersed lipid. […] Therefore all preparations were passed down a G-50 gel permeation column to separate any free cis Pt (II) from the hydrophobic cis Pt (II) analogue encapsulated in egg PC vesicles had better structural integrity and more uniform size distribution than the same analogues in soy PC vesicles. […] That is, the vesicles containing the cis Pt (II) analogues that had the lowest amounts of free phosphatidic acid, had the best structural stability and smaller size ranges. This is in direct contrast to the effect of phosphatidic acid in PC vesicles in the absence of the cis Pt (II) analogues.
# The fractions from the G-50 column containing the encapsulated cis Pt (II) analogues were concentrated by ultrafiltration to the desired concentration for chemotheraphy studies.
# Various compounds synthesized and incorporated in liposomal vesicles in the foregoing manner were employed in the chemotherapy of mice. The testing consisted of injections of 10 5 L1210 leukemic cells intravenuously into mice. One day later, a single -intravenous dose of the cis Pt (II) analogue in a sonicated PC vesicle was given. Increase in life span (ILS) was then measured relative to control animals who received only saline or PC vesicles alone as intravenous injections. Data are shown in Table I, together with data on some tests in which samples were not passed through a gel permeation column to remove free cis Pt (II), but an injectable preparation was made by the addition of "Tween" 80.
# [1] = Toxicity (LD10) of the cis Pt (II) analogues in PC vesicles; format: in vivo, mice; conditions: passed through G-50 column, preliminary
# [2] = Egg PC vesicle, passed through G-50 column, single intravenous dose one day after L1210 cells i.v.
# [3] = Egg PC vesicle, passed through G-50 column, single intravenous dose
# [4] = Soy PC vesicle, passed through G-50 column, single intravenous dose one day after L1210 cells i.v.
# [5] = Soy PC vesicle, passed through G-50 column, single intravenous dose
Substance,% ILS at Optimal Dose (L1210 leukemic cells; [2]) [%],Optimal Dose (L1210 leukemic cells; [3]) [mg Pt/kg],LD10 ([1]; Egg PC vesicle) [mg Pt/kg],% ILS at Optimal Dose (L1210 leukemic cells; [4]) [%],Optimal Dose (L1210 leukemic cells; [5]) [mg Pt/kg],LD10 ([1]; Soy PC vesicle) [mg Pt/kg],"% ILS at Optimal Dose (L1210 leukemic cells; Soy PC vesicle, samples not treated by G-50 column and Tween-80 added, single intravenous dose) [%]"
"Dipalmitoyl Phosphatidic Acid 1,2 Diaminocyclohexane Cis Pt (II) [Dipalmitoyl phosphatidic acid DAC]",100,39,58,–,–,–,–
Soy Phosphaditic Acid Bis Cyclohexylamine Cis Pt (II),–,–,–,16,155,500,–
Soy Phosphatidic Acid Bis Isoamylamine Cis Pt (II),–,–,–,8,155,345,–
"Dioleyl Phosphaditic Acid 1,2 Diaminocyclohexane Cis Pt (II) [Dioleyl phosphatidic acid DAC]",83,39,58,–,–,–,0
"Egg Phosphaditic Acid 1,2 Diaminocyclohexane Cis Pt (II) [Egg phosphatidic acid DAC]",50,26,>58,–,–,–,–
Soy Phosphatidic Acid Bis Cyclopentylamine Cis Pt (II),–,–,–,16,125,125,–
